Calls of active or inactive are those of the source.
Assays:
[1] = OVCAR-3 cell viability loss – plate reader, dry powder samples, PAX8 inhibitor project, dose response (AID 743044); format: functional, cell-based
[2] = target: Paired box protein Pax-8 (Homo sapiens, UniProt Q06710); test: PAX8 transcriptional activity inhibition in RMG-I – RMG-I cells, luciferase, cherry-pick, dose response (AID 687027); format: functional, cell-based;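 further: luciferase reporter driven by Pax8 target thyroperoxidase promoter measured by SteadyGlo luminescence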
[3] = OVCAR8 cell viability loss – plate reader, dry powder samples, PAX8 project, dose response (AID 743197); format: functional, cell-based; settings: OVCAR-8
[4] = viability loss in HeLa cells – cytotoxicity control for MgcRacGAP inhibitor project, dose response (AID 624300); format: functional
[5] = target: Genome polyprotein (dengue virus type 2, UniProt P29990); test: flavivirus cap methylation enzyme inhibition – biochemical, confirmation dose response, primary screen (AID 588689); format: functional
[6] = target: T1, Histone-lysine N-methyltransferase NSD2 (Homo sapiens, UniProt O96028); format: biochemical
T1 sequence (O96028 whole entry): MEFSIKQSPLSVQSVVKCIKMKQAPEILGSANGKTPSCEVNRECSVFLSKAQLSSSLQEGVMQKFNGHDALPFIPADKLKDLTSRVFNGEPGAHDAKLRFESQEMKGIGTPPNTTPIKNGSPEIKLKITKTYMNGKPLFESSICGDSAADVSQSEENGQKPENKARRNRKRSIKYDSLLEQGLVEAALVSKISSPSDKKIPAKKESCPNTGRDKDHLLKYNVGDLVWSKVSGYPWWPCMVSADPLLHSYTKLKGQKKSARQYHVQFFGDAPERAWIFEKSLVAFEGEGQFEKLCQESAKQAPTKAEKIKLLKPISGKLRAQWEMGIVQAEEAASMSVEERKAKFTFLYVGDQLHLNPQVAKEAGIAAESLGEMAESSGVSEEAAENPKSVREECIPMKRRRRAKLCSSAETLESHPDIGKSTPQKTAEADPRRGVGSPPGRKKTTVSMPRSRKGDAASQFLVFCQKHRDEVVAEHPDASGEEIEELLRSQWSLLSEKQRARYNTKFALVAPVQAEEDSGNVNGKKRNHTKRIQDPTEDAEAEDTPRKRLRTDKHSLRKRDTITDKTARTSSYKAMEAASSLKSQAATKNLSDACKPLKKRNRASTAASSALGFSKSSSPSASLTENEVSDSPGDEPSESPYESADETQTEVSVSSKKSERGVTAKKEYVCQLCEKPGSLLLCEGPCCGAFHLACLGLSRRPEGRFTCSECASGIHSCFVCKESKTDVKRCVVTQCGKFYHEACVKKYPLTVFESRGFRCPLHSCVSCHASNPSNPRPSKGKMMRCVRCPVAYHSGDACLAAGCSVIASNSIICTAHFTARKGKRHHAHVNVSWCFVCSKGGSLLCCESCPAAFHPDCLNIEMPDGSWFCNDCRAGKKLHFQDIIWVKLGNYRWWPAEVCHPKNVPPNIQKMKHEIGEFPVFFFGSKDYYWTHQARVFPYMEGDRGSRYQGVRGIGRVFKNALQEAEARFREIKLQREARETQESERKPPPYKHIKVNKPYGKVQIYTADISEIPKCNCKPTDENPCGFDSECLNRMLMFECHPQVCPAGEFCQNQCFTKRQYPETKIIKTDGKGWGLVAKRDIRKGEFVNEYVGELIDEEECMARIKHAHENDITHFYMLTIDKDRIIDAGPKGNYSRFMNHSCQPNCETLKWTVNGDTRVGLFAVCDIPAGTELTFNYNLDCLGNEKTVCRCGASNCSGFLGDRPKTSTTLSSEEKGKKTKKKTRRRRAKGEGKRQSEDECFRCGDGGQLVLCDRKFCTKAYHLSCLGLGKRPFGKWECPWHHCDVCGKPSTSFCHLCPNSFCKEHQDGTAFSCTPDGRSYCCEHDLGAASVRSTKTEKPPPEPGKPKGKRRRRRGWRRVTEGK

[7] = target: T2, Rac GTPase-activating protein 1 (Homo sapiens, UniProt Q9H0H5); test: blockers of MgcRacGAP-driven Rac1 GTP hydrolysis – biochemical, ADP Hunter fluorescence, primary and confirmatory, confirmation (AID 624330); format: functional
T2 sequence (Q9H0H5 whole entry): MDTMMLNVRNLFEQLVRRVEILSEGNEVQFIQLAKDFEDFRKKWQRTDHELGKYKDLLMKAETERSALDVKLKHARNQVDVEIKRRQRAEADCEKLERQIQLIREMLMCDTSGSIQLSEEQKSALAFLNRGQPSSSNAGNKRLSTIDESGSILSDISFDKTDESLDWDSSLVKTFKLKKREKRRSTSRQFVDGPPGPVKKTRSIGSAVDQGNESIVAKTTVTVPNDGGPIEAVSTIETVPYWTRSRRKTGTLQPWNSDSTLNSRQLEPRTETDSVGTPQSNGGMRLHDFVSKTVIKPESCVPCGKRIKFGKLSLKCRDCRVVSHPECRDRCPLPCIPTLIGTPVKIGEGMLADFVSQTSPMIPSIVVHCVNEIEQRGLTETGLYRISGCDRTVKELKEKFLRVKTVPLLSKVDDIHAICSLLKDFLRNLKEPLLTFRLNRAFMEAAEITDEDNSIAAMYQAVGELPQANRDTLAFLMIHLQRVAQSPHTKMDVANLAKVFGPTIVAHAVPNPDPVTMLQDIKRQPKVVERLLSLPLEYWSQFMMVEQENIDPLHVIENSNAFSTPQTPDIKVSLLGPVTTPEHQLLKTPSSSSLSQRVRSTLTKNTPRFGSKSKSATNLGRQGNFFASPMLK

[8] = target: Major prion protein (Homo sapiens, UniProt P04156); format: functional, cell-based
[9] = cells
[10] = general cell-killing toxicity readout – plate reader, dry powder samples, cytotoxicity control for PAX8 inhibitor project, dose response (AID 743021); format: functional, cell-based
[11] = non-specific 3'UTR reporter inhibition in Clone20-Shn3RL – cell-based, Renilla luciferase, cherry-picked, counter-screen for Shn3 inhibitor project, dose response (AID 624133); format: functional
[12] = loss of viability in HepG2 cells – cell-based, CellTiter-Glo, cherry-picked, cytotoxicity control for Shn3 inhibitor project, dose response (AID 624134); format: functional
[13] = reduction of Shn3 3'UTR-driven luciferase in osteoblasts – cell-based, Clone20 osteoblasts, firefly luciferase, cherry-picked, dose response (AID 624132); format: functional;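 further: firefly luciferase luminescence from reporter carrying the Shn3 3'UTR in osteoblasts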
[14] = target: Cytochrome P450 2D6 (Homo sapiens, UniProt P10635);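 further: CYP2D6 member of a cytochrome P450 panel assay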
[15] = viability loss in Vero cells – cytotoxicity control for Vif-APOBEC3G degradation inhibitor project, dose response (AID 1117358); format: functional; settings: Vero
[16] = P. falciparum Dd2 growth inhibitors, dose response, SYBR Green, cherry-picked samples (AID 1159567); format: functional, cell-based
[17] = reduced cellular PGC1a acetyl-lysine signal – cell-based, cherry-picked samples, dose response (AID 720514); format: functional;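 further: potency may reflect raised or lowered acetylation signal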
[18] = toxicity to human hepatoma HepG2 cells – cell-based, cherry-picked samples, cytotoxicity control, dose response (AID 1159577); format: functional
[19] = target: T3, COUP transcription factor 2 (Homo sapiens, UniProt P24468); test: Luminescence-based cell-based high throughput dose response assay to identify inhibitors of COUP-TFII (NR2F2).; format: functional;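 further: HEK293 cells transiently cotransfected with COUP-TFII expression vector and reporter; luciferase reporter luminescence driven by COUP-TFII from the pX2-168 reporter plasmid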
T3 sequence (P24468 whole entry): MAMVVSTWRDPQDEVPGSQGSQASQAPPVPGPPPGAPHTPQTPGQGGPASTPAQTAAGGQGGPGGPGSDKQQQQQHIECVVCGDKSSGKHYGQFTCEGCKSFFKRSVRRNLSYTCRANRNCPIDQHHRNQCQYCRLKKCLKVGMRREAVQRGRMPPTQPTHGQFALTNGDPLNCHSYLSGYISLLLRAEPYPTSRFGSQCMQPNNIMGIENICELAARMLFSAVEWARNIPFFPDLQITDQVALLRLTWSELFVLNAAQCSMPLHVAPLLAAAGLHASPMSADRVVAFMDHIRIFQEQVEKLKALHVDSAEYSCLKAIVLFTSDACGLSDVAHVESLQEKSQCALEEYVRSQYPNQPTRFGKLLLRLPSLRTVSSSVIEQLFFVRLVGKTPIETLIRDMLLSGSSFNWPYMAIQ

[20] = system: INS1; test: INS-1E survival protection against cytokine death – cell-based, luminescence, retest, dose response (AID 449756); format: functional; settings: Rattus norvegicus;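 further: cell death triggered by IL-1 beta plus TNF-alpha plus IFN-gamma mixture; protective hits raise ATP signal compared with cytokine alone wells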
[21] = target: Protein Wnt-3a (Mus musculus, UniProt P27467); test: antagonism of Wnt3a pathway luciferase reporter – Wnt-LIGHT cells, luminescence, selectivity assay for Gli-SUFU antagonist project, dose response (AID 651570); format: functional; settings: read-out: IC50_Mean;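 further: Wnt-LIGHT reporter cells stimulated with conditioned medium from Wnt3a-producing cells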
[22] = target: T4, Caspase-6 (Homo sapiens, UniProt P55212); test: inhibition of CASP6 peptide cleavage – biochemical, VEID-R110 fluorescence, cherry-pick, dose response (AID 720632)
T4 sequence (P55212 whole entry): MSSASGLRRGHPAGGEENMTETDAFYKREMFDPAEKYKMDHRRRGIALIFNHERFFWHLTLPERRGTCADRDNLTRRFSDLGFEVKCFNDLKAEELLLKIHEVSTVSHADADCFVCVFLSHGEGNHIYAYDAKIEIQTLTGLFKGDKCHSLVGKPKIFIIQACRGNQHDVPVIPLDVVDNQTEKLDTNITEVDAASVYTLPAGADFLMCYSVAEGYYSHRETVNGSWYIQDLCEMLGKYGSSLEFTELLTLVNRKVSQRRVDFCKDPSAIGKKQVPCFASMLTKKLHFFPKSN

[23] = target: T5, Heat shock factor protein 1 (Mus musculus, UniProt P38532); test: decrease of HSF1-responsive luciferase luminescence – cell-based, NIH3T3, dose retest, confirmation (AID 2382); format: functional;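 further: NIH3T3 fibroblasts with HSF1-driven luciferase reporter stressed by proteasome inhibitor MG132; luminescence from HSF1-driven luciferase expression after 8 hours of MG132 stress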
T5 sequence (P38532 whole entry): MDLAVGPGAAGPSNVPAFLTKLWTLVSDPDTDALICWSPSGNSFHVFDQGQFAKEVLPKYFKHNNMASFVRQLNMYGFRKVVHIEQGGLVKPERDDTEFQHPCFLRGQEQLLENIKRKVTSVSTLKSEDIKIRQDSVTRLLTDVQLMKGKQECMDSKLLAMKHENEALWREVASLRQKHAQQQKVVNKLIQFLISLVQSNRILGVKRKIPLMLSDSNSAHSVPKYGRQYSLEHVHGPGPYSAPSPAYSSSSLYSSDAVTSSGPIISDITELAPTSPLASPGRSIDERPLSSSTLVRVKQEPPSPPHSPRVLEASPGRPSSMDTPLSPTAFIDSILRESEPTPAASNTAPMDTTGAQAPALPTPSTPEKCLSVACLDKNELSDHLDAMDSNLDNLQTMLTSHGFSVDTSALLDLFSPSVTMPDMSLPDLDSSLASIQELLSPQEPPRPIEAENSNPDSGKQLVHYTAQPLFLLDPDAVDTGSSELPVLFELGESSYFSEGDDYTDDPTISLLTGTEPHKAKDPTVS

Compound: O=C(Nc1ccc(C(F)(F)F)cc1)Nc1ccc2c(c1)[C@H]1C[C@@H](CC(=O)N3CCc4ccccc4C3)O[C@H](CO)[C@H]1O2
- AC50 [1]: 23.6 µM (active)
- AC50 [2]: 4.1 µM (active)
- AC50 [3]: 54 µM (active)

Compound: CC1=C/C(=C(\c2cc(C)c(O)c(Br)c2)c2ccccc2S(=O)(=O)O)C=C(Br)C1=O
- CC50 [4]: 100 µM (active)
- IC50 [5]: 53.2 µM (active)
- AC50 [6]: 14.6 µM (active)
- IC50 [7]: 79.4 µM (active)

Compound: Cn1c(=S)sc2ccc3ccccc3c21
- IC50 [8]: 6.25 µM (active)
- IC50 [9]: 138 µM (inactive)

Compound: CCC(OC(=O)c1ccc(S(C)(=O)=O)c([N+](=O)[O-])c1)C(=O)NC1C2CC3CC(C2)CC1C3 (stereo not drawn)
- AC50 [10]: 31.1 µM (active)
- AC50 [11]: 4.49 µM (active)
- AC50 [12]: 7.27 µM (active)
- AC50 [2]: 8.07 µM (active)
- AC50 [13]: 1.66 µM (active)

Compound: O=C(CNC(=O)/C(=C\c1ccccc1)NC(=O)c1ccc(Br)cc1)OCc1ccccc1
- AC50 [14]: 14.1 µM (inconclusive)
- CC50 [15]: > 40 µM (active)

Compound: CCN(CC)CC(C)(C)C(=O)/C=C/c1ccc(/C=C/C(=O)C(C)(C)CN(CC)CC)cc1
- AC50 [11]: 1.78 µM (active)
- AC50 [12]: 5.07 µM (active)
- CC50 [4]: 65.5 µM (active)
- AC50 [2]: 2.2 µM (active)
- AC50 [13]: 0.468 µM (active)
- AC50 [6]: > 20 µM (inactive)
- IC50 [7]: 158 µM (active)

Compound: OC[C@H]1[C@@H](c2ccc(C#CC3CCCC3)cc2)[C@@H]2CN(CCC(F)(F)F)CCCCN12
- AC50 [16]: 346 nM (active)
- AC50 [17]: 11 µM (active)
- AC50 [18]: 10.5 µM (active)

Compound: CN(C)C(=O)c1ccc(COc2ccccc2Br)o1
- CC50 [15]: > 40 µM (active)

Compound: CCc1ccc(CN(C)C(=O)c2cc(COc3cccc4cnccc34)on2)cc1
- AC50 [11]: 13.5 µM (active)
- IC50 [19]: 7.5 µM (active)
- AC50 [12]: 3.23 µM (active)
- AC50 [20]: 3.27 µM (active)
- AC50 [13]: 1.92 µM (active)
- IC50 [21]: 4.25 µM (active)

Compound: Cc1cc2cccc(C)c2nc1SCC(=O)NNC(=O)c1ccco1
- IC50 [8]: 7.04 µM (active)
- IC50 [9]: > 138 µM (inactive)

Compound: Cc1cc(=O)n2c3c(c4c(cc13)c(CN(C)C)cc(=O)n4C)OC2
- AC50 [10]: 50 µM (active)
- AC50 [2]: 16.8 µM (active)
- AC50 [22]: 4.06 µM (active)

Compound: O=C(COC(=O)CSc1ccc2ccccc2c1Br)NC1CC1
- IC50 [8]: 4.72 µM (active)
- IC50 [9]: > 138 µM (inactive)

Compound: CC(C)(C)c1ccc(-c2nnc3sc(-c4ccccn4)nn23)cc1
- IC50 [19]: > 85.4 µM (inactive)
- EC50 [23]: 871 nM (active)

Compound: CCOCCCN=C(S)N1CCN(c2nc(-c3ccc(F)cc3)cs2)CC1
- IC50 [19]: 8.63 µM (active)
